Data from US20200085839A1, “COMBINATION OF IMMUNOTHERAPEUTICS AND BISFLUOROALKYL-1,4-BENZODIAZEPINONE COMPOUNDS FOR TREATING LYMPHOMAS” (Ayala Pharmaceuticals Inc., priority 2018, published 2020).
pEC50: −log10 of the molar value. Read-outs that look alike come from different tables or passages of the source.

Key:
Multiple Myeloma = test: Anti-tumor activity of CAR-BCMA T cells and Compound (1) in patients; format: in vivo, human; conditions: CAR-BCMA T cells with a composition comprising Compound (1)
Method: All patients receive 3 doses of 300 mg/m^2 cyclophosphamide and 3 doses of 30 mg/m^2 fludarabine. Chemotherapy is administered because recipient leukocyte depletion enhances the activity of adoptively transferred T cells. Both chemotherapy agents are administered daily on days −5, −4, and −3 before CAR-BCMA T-cell infusion on day 0. CAR-BCMA T cells are administered to each patient with a composition comprising Compound (1). The dose escalation plan calls for an initial dose of 0.3×10^6 CAR^+ T cells/kg with threefold increases to each subsequent dose level.
Myeloma staging is conducted according to the International Uniform Response Criteria for Multiple Myeloma. Toxicity is graded by the Common Terminology Criteria for Adverse Events version 4.02. Two weeks, 1 month, 2 months, 3 months, and 6 months after CAR-BCMA infusion, MM is assessed with standard staging tests.
Autologous peripheral blood mononuclear cells (PBMCs) are cultured with an anti-CD3 monoclonal antibody to induce T-cell proliferation. The cells are transduced with the γ-retroviral vector that encodes that CAR, and 9 days after the initiation of cultures, CAR-BCMA T cells are infused.
CAR-BCMA T cells are detected by flow cytometry after staining with a phycoerythrin-labeled BCMA constant-fragment reagent (PE-BCMA-Fc). CAR-BCMA T cells are also detected by performing quantitative PCR (qPCR). […]

[1] = test system: Raji cells (Burkitt's Lymphoma); test: Cell surface BCMA by FACS; format: cell-based, human; conditions: for pEC50: Homo sapiens
Method: (§1) […] cell lines, comprising 9 subtypes of lymphomas (see Table 1), were seeded at 1×10^5 cells/well in a total volume of 250 μl into a 96-well plate. The cells were cultured in RPMI medium supplemented with 10% FCS. Compound (22) was added to the cell cultures at a concentration of 10 μM, 1 μM, 100 nM, 10 nM, 1 nM, 100 pM, 10 pM, 1 pM, and 100 fM, and cell lines (8 from Hadassah Medical Center, 31 from Eurofins) were incubated at 37° C. for 24 hours with Compound (22). Following incubation, the cells were collected and BCMA levels were evaluated on the cell surface for cell-bound BCMA. Cells were stained with an anti-BCMA antibody (PE anti-human 19F2 BCMA, Biolegend), and cell surface BCMA levels were determined by FACS analysis (Mean Fluorescence Intensity. Soluble BCMA levels were analyzed by ELISA (Human BCMA/TNFRSF17 DuoSet kit: R&D Systems).

[2] = test system: CRO-AP2 cells (B-cell Lymphoma); test: Cell surface BCMA by FACS; format: cell-based, human; conditions: for pEC50: Homo sapiens
Method: as §1

[3] = test system: NU-DUL-1 cells (B-cell Lymphoma); test: Cell surface BCMA by FACS; format: cell-based, human; conditions: for pEC50: Homo sapiens
Method: as §1

[4] = test system: BC-1 cells (B-cell Lymphoma); test: Cell surface BCMA by FACS; format: cell-based, human; conditions: for pEC50: Homo sapiens
Method: as §1

[5] = test system: RPMI-6666 cells (Hodgkin's Lymphoma); test: Cell surface BCMA by FACS; format: cell-based, human; conditions: for pEC50: Homo sapiens
Method: as §1

[6] = test system: MC-116 cells (B-cell Lymphoma); test: Cell surface BCMA by FACS; format: cell-based, human; conditions: for pEC50: Homo sapiens
Method: as §1

DOHH-2 cells (DLBCL) = test: Cell surface BCMA by FACS; format: cell-based, human; conditions: for pEC50: Homo sapiens
Method: as §1

[7] = test system: MHHH-PREB-1 cells (B-cell Lymphoma); test: Cell surface BCMA by FACS; format: cell-based, human; conditions: for pEC50: Homo sapiens, B-cell
Method: as §1

[8] = test system: Jeko-1 cells (Mantle Cell Lymphoma); test: Cell surface BCMA by FACS; format: cell-based, human; conditions: for pEC50: Homo sapiens
Method: as §1

[9] = test system: Jiyoye cells (Burkitt's Lymphoma); test: Cell surface BCMA by FACS; format: cell-based, human; conditions: for pEC50: Homo sapiens
Method: as §1

[10] = test system: Namalwa cells (Burkitt's Lymphoma); test: Cell surface BCMA by FACS; format: cell-based, human; conditions: for pEC50: Homo sapiens
Method: as §1

[11] = test system: EB-3 cells (Burkitt's Lymphoma); test: Cell surface BCMA by FACS; format: cell-based, human; conditions: for pEC50: Homo sapiens
Method: as §1

[12] = 24 h, read-out: BCMA (Mean Fluorescence Intensity) EC50

CN1C(=O)[C@@H](NC(=O)[C@H](CCC(F)(F)F)[C@H](CCC(F)(F)F)C(N)=O)N=C(c2ccccc2)c2ccccc21 [Compound 1, (2R,3S)—N-((3S)-1-methyl-2-oxo-5-phenyl-2,3-dihydro-1H-1,4-benzodiazepin-3-yl)-2,3-bis(3,3,3-trifluoropropyl)succinamide]
anti-tumor response (Multiple Myeloma): improved anti-tumor response compared to either BCMA targeted CAR-T or Compound (1) treatment alone

Cc1cccc2c1NC(=O)[C@@H](NC(=O)[C@H](CCC(F)(F)F)[C@H](CCC(F)(F)F)C(N)=O)N=C2c1cccc(F)c1 [Compound (22), (2R,3S)—N-((3S)-5-(3-fluorophenyl)-9-methyl-2-oxo-2,3-dihydro-1H-1,4-benzodiazepin-3-yl)-2,3-bis(3,3,3-trifluoropropyl)succinamide]
mBCMA (MFI) Fold Increase [1]: 2.2 fold
BCMA (Mean Fluorescence Intensity) 1 nM Compound (22) ([1]; 1 nM, 24 h): 521
BCMA (Mean Fluorescence Intensity) 100 nM Compound (22) ([1]; 100 nM, 24 h): 650
pEC50 [1, 12]: 8.96
pEC50 ([1]; read-out: mBCMA (MFI) EC50): 8.96
mBCMA (MFI) Fold Increase [2]: 6.6 fold
BCMA (Mean Fluorescence Intensity) 1 nM Compound (22) ([2]; 1 nM, 24 h): 855
BCMA (Mean Fluorescence Intensity) 100 nM Compound (22) ([2]; 100 nM, 24 h): 4782
pEC50 [2, 12]: 8.25
pEC50 ([2]; read-out: mBCMA (MFI) EC50): 8.25
mBCMA (MFI) Fold Increase [3]: 7.0 fold
BCMA (Mean Fluorescence Intensity) 1 nM Compound (22) ([3]; 1 nM, 24 h): 3892
BCMA (Mean Fluorescence Intensity) 100 nM Compound (22) ([3]; 100 nM, 24 h): 4665
pEC50 [3, 12]: 9.21
pEC50 ([3]; read-out: mBCMA (MFI) EC50): 9.21
mBCMA (MFI) Fold Increase [4]: 5.9 fold
BCMA (Mean Fluorescence Intensity) 1 nM Compound (22) ([4]; 1 nM, 24 h): 676
BCMA (Mean Fluorescence Intensity) 100 nM Compound (22) ([4]; 100 nM, 24 h): 3694
pEC50 ([4]; BC1, 24 h, read-out: BCMA (Mean Fluorescence Intensity) EC50): 7.51
pEC50 ([4]; BC1, read-out: mBCMA (MFI) EC50): 7.51
mBCMA (MFI) Fold Increase [5]: 6.6 fold
BCMA (Mean Fluorescence Intensity) 1 nM Compound (22) ([5]; 1 nM, 24 h): 971.5
BCMA (Mean Fluorescence Intensity) 100 nM Compound (22) ([5]; 100 nM, 24 h): 3287.5
pEC50 [5, 12]: 8.15
pEC50 ([5]; read-out: mBCMA (MFI) EC50): 8.15
mBCMA (MFI) Fold Increase [6]: 4.2 fold
BCMA (Mean Fluorescence Intensity) 1 nM Compound (22) ([6]; 1 nM, 24 h): 915
BCMA (Mean Fluorescence Intensity) 100 nM Compound (22) ([6]; 100 nM, 24 h): 1850
pEC50 ([6]; MC116, 24 h, read-out: BCMA (Mean Fluorescence Intensity) EC50): 8.72
pEC50 ([6]; MC116, read-out: mBCMA (MFI) EC50): 8.72
mBCMA (MFI) Fold Increase (DOHH-2 cells (DLBCL)): 4.4 fold
BCMA (Mean Fluorescence Intensity) 1 nM Compound (22) (DOHH-2 cells (DLBCL); 1 nM, 24 h): 8033
BCMA (Mean Fluorescence Intensity) 100 nM Compound (22) (DOHH-2 cells (DLBCL); 100 nM, 24 h): 12620
pEC50 (DOHH-2 cells (DLBCL); [12]): 9.06
pEC50 (DOHH-2 cells (DLBCL); read-out: mBCMA (MFI) EC50): 9.06
mBCMA (MFI) Fold Increase [7]: 4.5 fold
BCMA (Mean Fluorescence Intensity) 1 nM Compound (22) ([7]; 1 nM, 24 h): 1363
BCMA (Mean Fluorescence Intensity) 100 nM Compound (22) ([7]; 100 nM, 24 h): 1830
pEC50 [7, 12]: 8.77
pEC50 ([7]; read-out: mBCMA (MFI) EC50): 8.77
pEC50 ([8]; JeKo-1, read-out: mBCMA (MFI) EC50): 8.92
pEC50 ([8]; Jeko-1, 24 h, read-out: BCMA (Mean Fluorescence Intensity) EC50): 8.92
mBCMA (MFI) Fold Increase ([8]; Jeko-1): 7.4 fold
BCMA (Mean Fluorescence Intensity) 1 nM Compound (22) ([8]; Jeko-1, 1 nM, 24 h): 1654
BCMA (Mean Fluorescence Intensity) 100 nM Compound (22) ([8]; Jeko-1, 100 nM, 24 h): 2885
pEC50 ([9]; JIYOYE, read-out: mBCMA (MFI) EC50): 8.12
pEC50 ([9]; Jiyoye, 24 h, read-out: BCMA (Mean Fluorescence Intensity) EC50): 8.12
mBCMA (MFI) Fold Increase ([9]; Jiyoye): 4.2 fold
BCMA (Mean Fluorescence Intensity) 1 nM Compound (22) ([9]; Jiyoye, 1 nM, 24 h): 1864
BCMA (Mean Fluorescence Intensity) 100 nM Compound (22) ([9]; Jiyoye, 100 nM, 24 h): 2616
cell-bound BCMA ([9]; Jiyoye, FIG. 8A): increased cell-bound BCMA
mBCMA (MFI) Fold Increase [10]: 2.0 fold
BCMA (Mean Fluorescence Intensity) 1 nM Compound (22) ([10]; 1 nM, 24 h): 1395
BCMA (Mean Fluorescence Intensity) 100 nM Compound (22) ([10]; 100 nM, 24 h): 1690
pEC50 [10, 12]: 7.97
pEC50 ([10]; read-out: mBCMA (MFI) EC50): 7.97
mBCMA (MFI) Fold Increase [11]: 0.5 fold
BCMA (Mean Fluorescence Intensity) 1 nM Compound (22) ([11]; 1 nM, 24 h): 549
BCMA (Mean Fluorescence Intensity) 100 nM Compound (22) ([11]; 100 nM, 24 h): 449
pEC50 [11, 12]: < 5.00
pEC50 ([11]; read-out: mBCMA (MFI) EC50): < 5.00
